Experimental data as given in US10745382B2 (BRISTOL-MYERS SQUIBB COMPANY, priority 2015, dated 2020).

Target: T1, PD-1/PD-L1 (Homo sapiens, UniProt Q9NZQ7)
T1 construct: made in house; host or cells: HEK293T
Test: PD-1/PD-L1 Homogenous Time-Resolved Fluorescence (HTRF) binding assay
Settings: PD-L1-His 10 nM, PD-1-Ig 20 nM; value given as range class; read-out: Range or IC50
Method in brief: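 Detection by europium cryptate anti-Ig plus APC anti-His (1 nM and 20 nM final) with HTRF signal. Buffer was dPBS, 0.1% BSA, 0.05% Tween-20.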

T1 sequence (Q9NZQ7 with tags, fused parts or gaps): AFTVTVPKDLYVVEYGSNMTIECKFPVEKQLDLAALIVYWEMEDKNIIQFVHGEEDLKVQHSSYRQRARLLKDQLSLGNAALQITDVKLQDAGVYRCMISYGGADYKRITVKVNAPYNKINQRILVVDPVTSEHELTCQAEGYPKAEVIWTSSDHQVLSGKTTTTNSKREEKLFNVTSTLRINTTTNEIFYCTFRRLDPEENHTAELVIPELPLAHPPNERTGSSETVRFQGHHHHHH

SMILES | IC50 [nM]
Cc1c(CCCCN2CC[C@@H](O)C2)cccc1-c1cccc(COc2cc(OCc3cncc(C#N)c3)c(CN3CCNC[C@H]3C(=O)O)cc2Cl)c1C [Example 4070, (S)-1-(5-chloro-2-((5-cyanopyridin-3-yl)methoxy)-4-((3′-(4-((R)-3-hydroxypyrrolidin-1-yl)butyl)-2,2′-dimethyl-[1,1′-biphenyl]-3-yl)methoxy)benzyl)piperazine-2-carboxylic Acid] | 0.21 to 10
Cc1c(COc2cc(OCc3cncc(C#N)c3)c(C(C)N(C)[C@@H](CO)C(=O)O)cc2Cl)cccc1-c1cccc(OCCCN2CC[C@@H](O)C2)c1C (stereo partly drawn) [Example 4139, N-(1-(5-chloro-2-((5-cyanopyridin-3-yl)methoxy)-4-((3′-(3-((R)-3-hydroxypyrrolidin-1-yl)propoxy)-2,2′-dimethyl-[1,1′-biphenyl]-3-yl)methoxy)phenyl)ethyl)-N-methyl-L-serine] | 0.21 to 10
N=C(c1cncc(COc2cc(OCc3cccc(-c4cccc(OCCCN5CC[C@@H](O)C5)c4Cl)c3Cl)c(Cl)cc2CNC[C@H](O)CO)c1)N1CC[C@@H](O)C1 [Example 2101, (S)-3-((5-chloro-4-((2,2′-dichloro-3′-(3-((R)-3-hydroxypyrrolidin-1-yl)propoxy)-[1,1′-biphenyl]-3-yl)methoxy)-2-((5-(((R)-3-hydroxypyrrolidin-1-yl)(imino)methyl)pyridin-3-yl)methoxy)benzyl)amino)propane-1,2-diol] | 0.21 to 10
Cc1c(COc2cc(OCc3cncc(C#N)c3)c(CN[C@](C)(CO)C(=O)O)cc2Cl)cccc1-c1cccc(OCCCN2CCC(O)(C(=O)O)CC2)c1Cl [Example 1099, (R)-1-(3-((3′-((4-(((2-carboxy-1-hydroxypropan-2-yl)amino)methyl)-2-chloro-5-((5-cyanopyridin-3-yl)methoxy)phenoxy)methyl)-2-chloro-2′-methyl-[1,1′-biphenyl]-3-yl)oxy)propyl)-4-hydroxypiperidine-4-carboxylic Acid] | 0.21 to 10
CCC(CO)(CO)NCc1cc(Cl)c(OCc2cccc(-c3cccc(OCCCNC[C@H](O)CO)c3C)c2C)cc1OCc1cncc(C#N)c1 [Example 2279, (S)-5-((4-chloro-5-((3′-(3-((2,3-dihydroxypropyl)amino)propoxy)-2,2′-dimethyl-[1,1′-biphenyl]-3-yl)methoxy)-2-(((1-hydroxy-2-(hydroxymethyl)butan-2-yl)amino)methyl)phenoxy)methyl)nicotinonitrile] | 0.21 to 10
Cc1c(COc2cc(OCc3cncc(S(C)(=O)=O)c3)c(CNC(C)(CO)C(=O)O)cc2Cl)cccc1-c1cccc(OCCCN2CCC(CO)(C(=O)O)C2)c1Cl (single isomer, unassigned) [Example 1063] | 0.21 to 10
Cc1c(COc2cc(OCc3cncc(C#N)c3)c(CN[C@](C)(CO)C(=O)O)cc2Cl)cccc1-c1cccc(OCCCN(C)C[C@H](O)CO)c1Cl [Example 2024, (R)-2-((5-chloro-4-((2′-chloro-3′-(3-(((S)-2,3-dihydroxypropyl)(methyl)amino)propoxy)-2-methyl-[1,1′-biphenyl]-3-yl)methoxy)-2-((5-cyanopyridin-3-yl)methoxy)benzyl)amino)-3-hydroxy-2-methylpropanoic Acid] | 0.21 to 10
Cc1c(COc2cc(OCc3cncc(C#N)c3)c(CN[C@@](C)(CO)C(=O)O)cc2Cl)cccc1-c1cccc(OCCCN2CC[C@@H](O)C2)c1Cl [Example 1511, (S)-2-((5-chloro-4-((2′-chloro-3′-(3-((R)-3-hydroxypyrrolidin-1-yl)propoxy)-2-methyl-[1,1′-biphenyl]-3-yl)methoxy)-2-((5-cyanopyridin-3-yl)methoxy)benzyl)amino)-3-hydroxy-2-methylpropanoic acid] | 0.21 to 10
CN(C)CCOc1cc(OCc2cccc(-c3cccc(OCCCN4CC[C@@H](O)C4)c3Cl)c2Cl)c(Cl)cc1CNC(C)(CO)CO [Example 2108, (R)-2-((5-chloro-4-((2,2′-dichloro-3′-(3-(3-hydroxypyrrolidin-1-yl)propoxy)-[1,1′-biphenyl]-3-yl)methoxy)-2-(2-(dimethylamino)ethoxy)benzyl)amino)-2-methylpropane-1,3-diol] | 0.21 to 10
CNC(=O)c1cccc(-c2cccc(COc3cc(OCc4cncc(C#N)c4)c(CN4CCC[C@H]4C(=O)O)cc3Cl)c2C)c1C [Example 4012, (5-chloro-2-((5-cyanopyridin-3-yl)methoxy)-4-((2,2′-dimethyl-3′-(methylcarbamoyl)-[1,1′-biphenyl]-3-yl)methoxy)benzyl)-L-proline] | 10 to 100
COC(=O)[C@@H]1C[C@@H](O)CN1CCCOc1cccc(-c2cccc(COc3cc(OCc4cncc(S(C)(=O)=O)c4)c(CN4CCCC[C@H]4C(=O)O)cc3Cl)c2C)c1Cl [Example 1069, (S)-1-(5-chloro-4-((2′-chloro-3′-(3-((2S,4R)-4-hydroxy-2-(methoxycarbonyl)pyrrolidin-1-yl)propoxy)-2-methyl-[1,1′-biphenyl]-3-yl)methoxy)-2-((5-(methylsulfonyl)pyridin-3-yl)methoxy)benzyl)piperidine-2-carboxylic Acid] | 0.21 to 10
CCC(CO)(CO)NCc1cc(Cl)c(OCc2cccc(-c3cccc(OCCCN4CCCC(CO)C4)c3C)c2C)cc1OCc1cncc(C#N)c1 (stereo not drawn) [Example 2283, 5-((4-chloro-2-(((1-hydroxy-2-(hydroxymethyl)butan-2-yl)amino)methyl)-5-((3′-(3-(3-(hydroxymethyl)piperidin-1-yl)propoxy)-2,2′-dimethyl-[1,1′-biphenyl]-3-yl)methoxy)phenoxy)methyl)nicotinonitrile] | 0.21 to 10
Cc1c(COc2cc(OCc3cncc(C#N)c3)c(CN3C[C@H](O)C[C@H]3C(=O)O)cc2Cl)cccc1-c1cccc(C(=O)N(C)C)c1C [Example 4032, (2S,4R)-1-(5-chloro-2-((5-cyanopyridin-3-yl)methoxy)-4-((3′-(dimethylcarbamoyl)-2,2′-dimethyl-[1,1′-biphenyl]-3-yl)methoxy)benzyl)-4-hydroxypyrrolidine-2-carboxylic Acid] | 100 to 2000
COCC(COC)NCc1cc(Cl)c(OCc2cccc(-c3cccc(OCCCN4CC[C@@H](O)C4)c3Cl)c2C)cc1OCc1cncc(C#N)c1 [Example 2109, (R)-5-((4-chloro-5-((2′-chloro-3′-(3-(3-hydroxypyrrolidin-1-yl)propoxy)-2-methyl-[1,1′-biphenyl]-3-yl)methoxy)-2-(((1,3-dimethoxypropan-2-yl)amino)methyl)phenoxy)methyl)nicotinonitrile] | 0.21 to 10
Cc1c(COc2cc(OCc3cncc(C#N)c3)c(CNC(CO)CO)cc2Cl)cccc1-c1cccc(CN(C)CCN2CCS(=O)(=O)CC2)c1C [Example 4080, 5-((4-chloro-2-(((1,3-dihydroxypropan-2-yl)amino)methyl)-5-((3′-(((2-(1,1-dioxidothiomorpholino)ethyl)(methyl)amino)methyl)-2,2′-dimethyl-[1,1′-biphenyl]-3-yl)methoxy)phenoxy)methyl)nicotinonitrile] | 0.21 to 10
Cc1c(COc2cc(OCc3cncc(C#N)c3)c(CNC(C)(CO)CO)cc2Cl)cccc1-c1cccc(OC[C@H]2CCN(CC(O)CO)C2)c1Cl (stereo partly drawn) [Example 2119, 5-((4-chloro-5-((2′-chloro-3′-(((3S)-1-(2,3-dihydroxypropyl)pyrrolidin-3-yl)methoxy)-2-methyl-[1,1′-biphenyl]-3-yl)methoxy)-2-(((1,3-dihydroxy-2-methylpropan-2-yl)amino)methyl)phenoxy)methyl)nicotinonitrile] | 0.21 to 10
Cc1c(COc2cc(OCc3cncc(C#N)c3)c(CNC[C@H](O)CO)cc2Cl)cccc1-c1cccc(OCCCN(C)C[C@H](O)CO)c1Cl [Example 2029, 5-((4-chloro-5-((2′-chloro-3′-(3-(((S)-2,3-dihydroxypropyl)(methyl)amino)propoxy)-2-methyl-[1,1′-biphenyl]-3-yl)methoxy)-2-((((S)-2,3-dihydroxypropyl)amino)methyl)phenoxy)methyl)nicotinonitrile] | 0.21 to 10
Cc1c(COc2cc(OCc3cncc(C#N)c3)c(CN3CCCC[C@H]3C(=O)O)cc2Cl)cccc1-c1cccc(OCCCN2CCC(F)(F)C2)c1C [Example 4112, (S)-1-(5-chloro-2-((5-cyanopyridin-3-yl)methoxy)-4-((3′-(3-(3,3-difluoropyrrolidin-1-yl)propoxy)-2,2′-dimethyl-[1,1′-biphenyl]-3-yl)methoxy)benzyl)piperidine-2-carboxylic Acid] | 0.21 to 10
Cc1c(COc2cc(OCc3cncc(C#N)c3)c(CNC(CO)CO)cc2Cl)cccc1-c1cccc(OCC2(CN3CC[C@@H](O)C3)CC2)c1C [Example 2342, (R)-5-((4-chloro-2-(((1,3-dihydroxypropan-2-yl)amino)methyl)-5-((3′-((1-((3-hydroxypyrrolidin-1-yl)methyl)cyclopropyl)methoxy)-2,2′-dimethyl-[1,1′-biphenyl]-3-yl)methoxy)phenoxy)methyl)nicotinonitrile] | 0.21 to 10
Cc1c(COc2cc(OCc3cncc(C#N)c3)c(CN[C@@H](CO)C(=O)O)cc2Cl)cccc1-c1cccc(OCCCN2CCC(O)C2)c1C(F)(F)F (stereo in doubt) [Example 3012, (S)-2-((5-chloro-2-((5-cyanopyridin-3-yl)methoxy)-4-((3′-(3-((R)-3-hydroxypyrrolidin-1-yl)propoxy)-2-methyl-2′-(trifluoromethyl)-[1,1′-biphenyl]-3-yl)methoxy)benzyl)amino)-3-hydroxypropanoic Acid] | 0.21 to 10
Cc1c(COc2cc(OCc3cncc(C#N)c3)c(CN3CCCC[C@H]3C(=O)O)cc2Cl)cccc1-c1cccc(OCCCNC[C@H](O)c2ccccc2)c1C [Example 2220, (2S)-1-(5-chloro-2-((5-cyanopyridin-3-yl)methoxy)-4-((3′-(3-((R)-2-hydroxy-2-phenylethylamino)propoxy)-2,2′-dimethylbiphenyl-3-yl)methoxy)benzyl)piperidine-2-carboxylic Acid] | 0.21 to 10
